Data taken from patent US20250066338A1, “CERTAIN 3-AZABICYCLO[3.1.0]HEXANES AS GLP-1 RECEPTOR MODULATORS” (AstraZeneca AB, priority 2021, published 2025).

What was measured:
[1] = biological target: GLP-1R in EndoC-βH1 cells (Homo sapiens (Human), UniProt P43220); assay: EndoC cAMP Accumulation Assay; format: cell-based; details: EndoC-βH1 human pancreatic beta cell line; HTRF cAMP accumulation
From the text: EndoC cAMP Accumulation Assay
A HTRF cAMP assay (cAMP Gs dynamic kit; CisoBio Cat #62AM4PEJ) was used to identify agonists of GLP-1R in a pancreatic insulinoma cell line (EndoC-βH1). […] EndoC-βH1 cells have detectable GLP-1R messenger ribonucleic acid (mRNA) as detected by quantitative polymerase chain reaction (qPCR). […] The EndoC-βH1 cell line is a valid model of human beta cells and applicable for screenings to identify novel drug target candidates (Mol. Metab., 2018, 8, 144-157). CisBio HTRF cAMP kits are based on a competitive immunoassay using cryptate-labelled anti-cAMP antibody and d2-labeled cAMP. The detection kit is intended for the direct quantitative determination of cAMP. The specific signal (i.e. energy transfer) is inversely proportional to the concentration of cAMP in the standard or sample. Test compounds (10 mM in DMSO) were diluted into assay buffer (HBSS (Sigma #H8264) supplemented with 25 mM HEPES (Gibco #15630, pH 7.4), 0.1% BSA (Sigma #A3059) and 0.5 mM IBMX (Sigma #17018) included fresh on the day of the assay) into 96 well U-bottom plates (Greiner #650201). Diluted compounds were transferred to ECHO source polypropylene plates (Labcyte #P-05525) and dose response curves were dispensed acoustically using ECHO 550 into black shallow-well u-bottom 384-well HTRF Assay Plates (Corning 4514).
Cryovials of EndoC-H1 (supplied at 1×10e^7 cells/vial) were used directly for screening. The cryovials and were removed from N2 (1) and thawed rapidly in a 37° C. water bath. The cells were resuspended in assay buffer and centrifuged at 300 g for 5 min. Cells were resuspended in assay buffer at the appropriate concentration, typically at 12e5 cells per mL (3000 cells per well, dependent on cell batch) and 2.5 μL diluted cells were added to all wells of destination plate by Multidrop combi reagent dispenser (Thermofisher). The plates were incubated at rt for 30 min. The assay was stopped by adding 2.5 μL anti-cAMP cryptate solution to all wells and 2.5 μL cAMP-d2 solution (both diluted 1:20 in lysis buffer) to columns 1-22 by Combi drop. A volume of 2.5 μL cAMP-d2 solution was added to wells E23 to P24 and 2.5 μL lysis buffer added to wells A23 to D24 by multichannel pipette. The plates were incubated at rt for 1 h and read on an Envision plate reader using excitation wavelength of 320 nm and emission of […] and 660 nm.
Raw data from Envision is converted to % DeltaF according to the manufacturer's instructions. Dose response curves are analysed via 4-Parameter Logistical Analysis and assay plate Z′ values obtained. Samples are graphed as percentage (%) activation plots compared to GIP (1-42, Bachem H-5645) with assay window defined by negative control as basal cell cAMP levels and positive control are defined by maximum GIP (82.5 nM) signal. GLP1 (7-36 amide, Bachem H-6795) dose response curve was included on all plates.

[2] = biological target: human GLP-1R receptor (Homo sapiens (Human), UniProt P43220, L260F); assay: CHOK1 GLP-1R cAMP Assay; format: cell-based; details: CHO-K1 cell line stably expressing human GLP-1R; HTRF cAMP; agonist activity
Chain of human GLP-1R receptor (P43220 24-463 L260F): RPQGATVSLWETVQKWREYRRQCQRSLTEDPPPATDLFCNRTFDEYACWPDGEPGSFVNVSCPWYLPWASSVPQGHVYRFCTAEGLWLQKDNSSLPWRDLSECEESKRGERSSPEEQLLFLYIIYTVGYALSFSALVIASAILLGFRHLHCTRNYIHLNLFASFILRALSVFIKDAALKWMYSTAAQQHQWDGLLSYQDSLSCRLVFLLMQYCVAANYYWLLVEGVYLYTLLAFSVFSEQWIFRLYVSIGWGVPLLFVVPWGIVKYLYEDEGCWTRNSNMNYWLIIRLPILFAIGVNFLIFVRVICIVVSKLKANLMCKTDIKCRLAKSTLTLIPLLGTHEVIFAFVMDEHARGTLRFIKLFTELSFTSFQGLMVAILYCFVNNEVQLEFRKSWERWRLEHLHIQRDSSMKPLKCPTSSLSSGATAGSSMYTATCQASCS
Protocol: A cell line stably expressing the human GLP-1R receptor (NM 002062.5, including the naturally-occurring variant Leu260Phe) in a CHO-K1 (ATCC® CCL-61™) was used for assay.
GLP-1 receptor mediated agonist activity was determined in a cell based assay measuring cyclic adenosine monophosphate (cAMP) levels in cells using Homogeneous Time-Resolved Fluorescence (HTRF) cAMP detection kit (CisBio catalog #62AM4PEC, cAMP Gs Dynamic range kit). The cAMP detection method is based on a competitive immunoassay, in which cAMP produced by the cells and cAMP labeled with the dye d2 compete for binding to a Europium-Cryptate-labeled anti-cAMP antibody. The specific HTRF signal is inversely proportional to the concentration of cAMP.
Compounds were added to individual well in 384 well-assay plates (Greiner #784076) using an Echo (LabCyte) dispenser from 10 mM stocks. Varying concentration of compounds were added to wells, and DMSO was used to normalize each well to a volume of 100 nL. A dose response curve of GLP1(7-36)NH2 (Bachem H-6795) was included in each run. 5 μL of cAMP concentration response standards are applied in specified wells in the assay plates. Cryo-preserved cells are thawed and resuspended in assay buffer pre-heated to 37° C. (20 mM HEPES pH 7.4, lx Hank's Balanced Salt Solution (HBSS, Life Technologies #14065) supplemented with 0.1% (w/v) bovine serum albumin (Sigma, A-7030). Cells were centrifuged at 250*g for 5 min at rt, and resuspended in room tempered assay buffer to a final density of 0.16*10^6 cell/mL, to deliver 800 cells/well. 5 μL of assay buffer with 1 mM 3-isobutyl-1-methylxanthin (IBMX; Sigma cat I-7018) was dispensed per well in assay plates using a multidrop combi (Thermo Scientific) subsequently 5 μL of cell suspension was distributed to relevant wells in the assay using a multidrop dispenser. Assay plates were incubated 20 min at rt.
Detection reagents, Europium-Cryptate-labeled anti-cAMP antibody and cAMP labeled with the dye d2, are diluted in lysis buffer, provided by the manufacturer. 5 μL of each detection reagent is supplemented to each assay well using a multidrop dispenser. Assay plates are incubated in the dark for at least one h. The HTRF signal is measured using the HTRF module (excitation: 337 nm, emission A: 665 nm and emission B: 620 nm) in Pherastar FSX (BMG Labtech).
Raw data were converted to pM cAMP using the cAMP standard curve included in each run. Converted data were further analyzed in Genedata Screener (Genedata) and EC50 determinations were made from agonist dose-response curves analyzed with a curve fitting program using a 4-parameter logistic dose response equation (Equation y=A+((B−A)/1+((C/x)^D))) where A is no stimulation, B is full stimulation, C is the EC50 and D is the Hill slope). The percent effect was determined relative to a saturating concentration of a full GLP-1R agonist (GLP1(7-36)NH2 has 100% effect in this assay setup).

[3] = biological target: human phosphodiesterase-3A (Homo sapiens (Human), UniProt Q14432); assay: PDE3 Assay; format: biochemical; details: human recombinant enzyme expressed in Sf9 cells; formation of 5'AMP from cAMP
Chain of human phosphodiesterase-3A (Q14432 whole entry): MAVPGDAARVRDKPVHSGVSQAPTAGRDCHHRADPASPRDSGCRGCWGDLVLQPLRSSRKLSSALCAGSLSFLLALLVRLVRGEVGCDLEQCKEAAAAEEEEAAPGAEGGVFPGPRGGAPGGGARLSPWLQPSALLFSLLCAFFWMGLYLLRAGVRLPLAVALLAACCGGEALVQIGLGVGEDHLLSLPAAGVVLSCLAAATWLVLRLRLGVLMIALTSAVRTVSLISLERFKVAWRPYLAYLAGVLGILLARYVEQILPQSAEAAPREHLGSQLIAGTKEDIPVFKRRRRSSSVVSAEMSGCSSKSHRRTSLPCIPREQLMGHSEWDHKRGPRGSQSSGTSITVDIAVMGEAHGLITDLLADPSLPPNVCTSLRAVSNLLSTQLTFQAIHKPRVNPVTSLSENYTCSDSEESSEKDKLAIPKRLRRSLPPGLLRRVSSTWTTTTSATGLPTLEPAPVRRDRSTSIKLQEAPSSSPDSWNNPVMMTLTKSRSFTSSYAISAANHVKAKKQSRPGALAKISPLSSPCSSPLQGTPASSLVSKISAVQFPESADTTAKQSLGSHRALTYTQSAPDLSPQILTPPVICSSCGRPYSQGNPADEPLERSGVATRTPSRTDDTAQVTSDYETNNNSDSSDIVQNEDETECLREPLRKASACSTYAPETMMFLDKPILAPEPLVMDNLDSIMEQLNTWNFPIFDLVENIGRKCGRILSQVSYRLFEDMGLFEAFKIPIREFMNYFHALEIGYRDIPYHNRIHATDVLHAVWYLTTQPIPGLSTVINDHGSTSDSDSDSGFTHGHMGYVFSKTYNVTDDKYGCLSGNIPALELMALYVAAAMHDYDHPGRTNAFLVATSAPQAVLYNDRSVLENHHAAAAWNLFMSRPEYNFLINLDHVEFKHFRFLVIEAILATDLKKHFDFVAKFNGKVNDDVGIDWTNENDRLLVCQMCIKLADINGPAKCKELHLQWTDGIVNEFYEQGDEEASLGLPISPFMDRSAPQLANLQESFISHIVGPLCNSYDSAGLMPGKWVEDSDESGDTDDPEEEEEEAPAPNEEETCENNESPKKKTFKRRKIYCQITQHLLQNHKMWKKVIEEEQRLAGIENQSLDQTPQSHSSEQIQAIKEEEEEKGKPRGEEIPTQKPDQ
Protocol: Evaluation of the effects of compounds on the activity of the human phosphodiesterase-3A is quantified by measuring the formation of 5′AMP from cAMP using a human recombinant enzyme expressed in a clonal isolate of Spodoptera frugiperda cells (Sf9) cells.
The test compound, reference compound or water (control) are added to a buffer containing 40 mM tris(hydroxymethyl)aminomethane (Tris)/HCl (pH 7.4) and 8 mM MgCl2, 450 nMcAMP and 0.25 μCi [^3H]cAMP.
Thereafter, the reaction is initiated by addition of the enzyme (about 1 U) and the mixture is incubated for 20 min at 22° C.
For basal control measurements, the enzyme is omitted from the reaction mixture. Following incubation SPA beads are added. After 30 min at 22° C. under shaking, the amount of [^3H]^+ 5′AMP is quantified with a scintillation counter (Topcount, Packard).
The results are expressed as a percent inhibition of the control enzyme activity. The standard inhibitory reference compound is milrinone (CAS number 78415-72-2), which is tested in each experiment at several concentrations to obtain an inhibition curve from which its IC50 value is calculated.

Chain of GLP-1R in EndoC-βH1 cells (P43220 24-463): as the sequence (P43220 24-463 L260F) above, with F237L counted along it

| Compound | EC50 [1] | EC50 [2] | IC50 [3] |
| --- | --- | --- | --- |
| O=C(O)c1ccc2nc(CN3C[C@@H]4[C@H](C3)[C@H]4c3cccc(OCc4ccc(Cl)cc4F)n3)n(C[C@@H]3CCO3)c2c1 [Example 13, 2-(((1R,5S,6S)-6-(6-((4-Chloro-2-fluorobenzyl)oxy)pyridin-2-yl)-3-azabicyclo[3.1.0]hexan-3-yl)methyl)-1-(((S)-oxetan-2-yl)methyl)-1H-benzo[d]imidazole-6-carboxylic acid] | 23 nM | 100 nM | > 100000 nM |
| COc1cc(C(=O)O)cc2c1nc(CN1C[C@@H]3[C@H](C1)[C@H]3c1nc(OCc3ccc(Cl)cc3F)ccc1C)n2C[C@@H]1CCO1 [Example 19, 2-(((1R,5S,6S)-6-(6-((4-Chloro-2-fluorobenzyl)oxy)-3-methylpyridin-2-yl)-3-azabicyclo[3.1.0]hexan-3-yl)methyl)-4-methoxy-1-(((S)-oxetan-2-yl)methyl)-1H-benzo[d]imidazole-6-carboxylic acid] | 9.6 nM | 19 nM | > 100000 nM |
